Test results from patent publication US8680113B2, “BMI-1 protein expression modulators” (PTC Therapeutics, Inc., priority 2008, dated 2014).

Tests used:
Bmi-1 [1] = assay: Sandwich ELISA Assay (Bmi-1 ELISA in HT-1080 cells); format: cell-based, human
Procedure, shortened: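 HT-1080 cells (8000/well) were treated with compounds in 0.5% final DMSO for 40-48 h at 37°C and then lysed. Bmi-1 in lysates was measured by sandwich ELISA: overnight capture at 4°C on mouse monoclonal, rabbit anti-Bmi-1 detection, HRP anti-rabbit, TMB. OD450 was read with an OD570 reference against a recombinant GST-Bmi-1 standard curve (0-8000 pg/mL).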

Bmi-1 [2] = assay: Cell Model Assay: Bmi-1 expression in HT1080; format: cell-based, human; settings: HT1080 (fibrosarcoma)
Procedure: (§1) Using assay conditions known to those skilled in the art, the ability of the compounds described herein to reduce Bmi-1 expression in HT1080 (fibrosarcoma), U87-MG (glioblastoma), T98G (glioblastoma), K562 (chronic myelogenous leukemia) and KG1 (acute myelogenous leukemia) cell lines was tested (at test compound concentrations calculated from the ELISA assay data shown in Example 1) compared to puromycin as a control to provide the EC50 values shown in Table 2. The term “ND” means that data was not determined.

Bmi-1 [3] = assay: Cell Model Assay: Bmi-1 expression in U87-MG; format: cell-based; settings: U87-MG (glioblastoma)
Procedure: as §1

Bmi-1 [4] = assay: Cell Model Assay: Bmi-1 expression in T98G; format: cell-based; settings: T98G (glioblastoma)
Procedure: as §1

MCL-Mino = assay: Mantle Cell Lymphoma Assay: cytotoxicity, Mino; format: cell-based; settings: MCL-Mino, 72 hrs; for viability at 0.004 µM / viability at 0.037 µM / viability at 0.11 µM / viability at 0.33 µM / viability at 1 µM / viability at 3 µM: Homo sapiens, read-out: Cell Viability (%)
From the text: (§2) MCL cell lines Jeko, Mino, and Rec-1 were provided by American Type Culture Collection: The Bioresource Center (Manassas, Va.). […] Carlsbad, Calif.) in T-75 culture flasks. Cell concentration was maintained between 2 to 3×10^5 cells/mL. Early passage cells (passages 2-4) were used for all experiments. Ficoll-Histopaque density sedimentation (Sigma Aldrich) was used for separation of debris and purification of cell lines prior to experiments. […] The cytotoxic effect of test compounds on the MCL-cell lines was assessed by measuring cell concentration and cell viability using a Beckman Coulter Vi-Cell Counter. Controls and treated cells were harvested and counted at day 3.

MCL-Rec1 = assay: Mantle Cell Lymphoma Assay: cytotoxicity, Rec-1; format: cell-based; settings: 72 hrs; for viability at 0.004 µM / viability at 0.037 µM / viability at 0.11 µM / viability at 0.33 µM / viability at 1 µM / viability at 3 µM: Homo sapiens, read-out: Cell Viability (%)
From the text: as §2

MM cell line = assay: Multiple Myeloma Assay; format: cell-based; settings: 72 hrs in culture

| SMILES | IC50 (Bmi-1 [1]) [nM] | EC50 (Bmi-1 [2]) [nM] | EC50 (Bmi-1 [3]) [nM] | EC50 (Bmi-1 [4]) [nM] | viability at 0.004 µM (MCL-Mino; 0.004 μM) [%] | viability at 0.037 µM (MCL-Mino; 0.037 μM) [%] | viability at 0.11 µM (MCL-Mino; 0.11 μM) [%] | viability at 0.33 µM (MCL-Mino; 0.33 μM) [%] | viability at 1 µM (MCL-Mino; 1 μM) [%] | viability at 3 µM (MCL-Mino; 3 μM) [%] | Cell Concentration (×10^6) (MCL-Mino; 0.004 μM) | Cell Concentration (×10^6) (MCL-Mino; 0.037 μM) | Cell Concentration (×10^6) (MCL-Mino; 0.11 μM) | Cell Concentration (×10^6) (MCL-Mino; 0.33 μM) | Cell Concentration (×10^6) (MCL-Mino; 1 μM) | Cell Concentration (×10^6) (MCL-Mino; 3 μM) | viability at 0.004 µM (MCL-Rec1; MCL-Rec1, 0.004 μM) [%] | viability at 0.037 µM (MCL-Rec1; MCL-Rec1, 0.037 μM) [%] | viability at 0.11 µM (MCL-Rec1; MCL-Rec1, 0.11 μM) [%] | viability at 0.33 µM (MCL-Rec1; MCL-Rec1, 0.33 μM) [%] | further results |
| --- | --- | --- | --- | --- | --- | --- | --- | --- | --- | --- | --- | --- | --- | --- | --- | --- | --- | --- | --- | --- | --- |
| COc1cc(Br)c(Nc2nc(-c3c(C)nc4ncccn34)cs2)c(Br)c1 [Cpd 1, N-(2,6-dibromo-4-methoxyphenyl)-4-(2-methylimidazo[1,2-a]pyrimidin-3-yl)thiazol-2-amine] | < 500 | 390 | 420 | 220 | 94.7 ± 0.2 | 95.1 ± 0.2 | 94.6 ± 0.2 | 94.5 ± 0.3 | 89.4 ± 0.4 | 59.3 ± 0.5 | 1.53 ± 0.07 ×10^6 | 1.53 ± 0.05 ×10^6 | 1.55 ± 0.02 ×10^6 | 1.50 ± 0.02 ×10^6 | 0.74 ± 0.02 ×10^6 | 0.20 ± 0.01 ×10^6 | 91.9 ± 0.5 | 91.7 ± 0.4 | 91.7 ± 0.2 | 90.9 ± 0.2 | viability at 1 µM (MCL-Rec1; MCL-Rec1, 1 μM): 85 ± 0.6%; viability at 3 µM (MCL-Rec1; MCL-Rec1, 3 μM): 56.3 ± 0.4%; Cell Concentration (×10^6) (MCL-Rec1; MCL-Rec1, 0.004 μM): 1.66 ± 0.12 ×10^6; Cell Concentration (×10^6) (MCL-Rec1; MCL-Rec1, 0.037 μM): 1.74 ± 0.05 ×10^6; Cell Concentration (×10^6) (MCL-Rec1; MCL-Rec1, 0.11 μM): 1.73 ± 0.02 ×10^6; Cell Concentration (×10^6) (MCL-Rec1; MCL-Rec1, 0.33 μM): 1.66 ± 0.01 ×10^6; Cell Concentration (×10^6) (MCL-Rec1; MCL-Rec1, 1 μM): 0.96 ± 0.08 ×10^6; Cell Concentration (×10^6) (MCL-Rec1; MCL-Rec1, 3 μM): 0.32 ± 0.01 ×10^6; Cell Concentration, MM cell line (MM cell line; dose 0.004 μM): 1.02 ± 0.03 ×10^6; viability at 0.004 µM (MM cell line; dose 0.004 μM): 90.07 ± 0.34%; Cell Concentration, MM cell line (MM cell line; dose 0.037 μM): 1.06 ± 0.01 ×10^6; viability at 0.037 µM (MM cell line; dose 0.037 μM): 89.53 ± 0.71%; Cell Concentration, MM cell line (MM cell line; dose 0.11 μM): 1.13 ± 0.02 ×10^6; viability at 0.11 µM (MM cell line; dose 0.11 μM): 90.33 ± 0.1%; Cell Concentration, MM cell line (MM cell line; dose 0.33 μM): 1.10 ± 0.02 ×10^6; viability at 0.33 µM (MM cell line; dose 0.33 μM): 90.63 ± 0.28%; Cell Concentration, MM cell line (MM cell line; dose 1 μM): 0.54 ± 0.03 ×10^6; viability at 1 µM (MM cell line; dose 1 μM): 85.4 ± 0.58%; Cell Concentration, MM cell line (MM cell line; dose 3 μM): 0.39 ± 0.02 ×10^6; viability at 3 µM (MM cell line; dose 3 μM): 79.03 ± 0.45% |
| COc1ccc(Nc2nc(-c3c(C)nc4ncccn34)cs2)cc1 [Cpd 14, N-(4-methoxyphenyl)-4-(2-methylimidazo[1,2-a]pyrimidin-3-yl)thiazol-2-amine] | < 500 | 3 | 8 | < 4 | 92.27 ± 0.38 | 64.5 ± 16.6 | 40.6 ± 1.91 | 18.1 ± 1.78 | 13.5 ± 1.85 | 14.1 ± 0.28 | 1.26 ± 0.01 ×10^6 | 0.66 ± 0.24 ×10^6 | 0.23 ± 0.01 ×10^6 | 0.06 ± 0.01 ×10^6 | 0.05 ± 0.01 ×10^6 | 0.05 ± 0.00 ×10^6 | 88.1 ± 0.88 | 84.5 ± 0.66 | 34.4 ± 3.25 | 8.93 ± 0.15 | viability at 1 µM (MCL-Rec1; MCL-Rec1, 1 μM): 9.83 ± 0.33%; viability at 3 µM (MCL-Rec1; MCL-Rec1, 3 μM): 9.5 ± 0.35%; Cell Concentration (×10^6) (MCL-Rec1; MCL-Rec1, 0.004 μM): 1.52 ± 0.02 ×10^6; Cell Concentration (×10^6) (MCL-Rec1; MCL-Rec1, 0.037 μM): 1.22 ± 0.02 ×10^6; Cell Concentration (×10^6) (MCL-Rec1; MCL-Rec1, 0.11 μM): 0.24 ± 0.03 ×10^6; Cell Concentration (×10^6) (MCL-Rec1; MCL-Rec1, 0.33 μM): 0.05 ± 0.00 ×10^6; Cell Concentration (×10^6) (MCL-Rec1; MCL-Rec1, 1 μM): 0.05 ± 0.00 ×10^6; Cell Concentration (×10^6) (MCL-Rec1; MCL-Rec1, 3 μM): 0.05 ± 0.00 ×10^6; Cell Concentration, MM cell line (MM cell line; dose 0.004 μM): 0.84 ± 0.01 ×10^6; viability at 0.004 µM (MM cell line; dose 0.004 μM): 84.53 ± 0.4%; Cell Concentration, MM cell line (MM cell line; dose 0.037 μM): 0.22 ± 0.00 ×10^6; viability at 0.037 µM (MM cell line; dose 0.037 μM): 54.4 ± 0.98%; Cell Concentration, MM cell line (MM cell line; dose 0.11 μM): 0.21 ± 0.01 ×10^6; viability at 0.11 µM (MM cell line; dose 0.11 μM): 54.9 ± 2.79%; Cell Concentration, MM cell line (MM cell line; dose 0.33 μM): 0.21 ± 0.01 ×10^6; viability at 0.33 µM (MM cell line; dose 0.33 μM): 57.7 ± 1.33%; Cell Concentration, MM cell line (MM cell line; dose 1 μM): 0.24 ± 0.01 ×10^6; viability at 1 µM (MM cell line; dose 1 μM): 60.9 ± 1.26%; Cell Concentration, MM cell line (MM cell line; dose 3 μM): 0.25 ± 0.01 ×10^6; viability at 3 µM (MM cell line; dose 3 μM): 59.9 ± 1.32% |
